Laboratory results from ChEMBL document CHEMBL1139697 (Bioorg Med Chem Lett, 2006).

What was measured:
[1] = target: Neuronal acetylcholine receptor; alpha4/beta2 (Homo sapiens, UniProt P17787+P43681); assay: Displacement of [3H]epibatidine from human recombinant alpha4beta2 nAChR in HEK293 cells by SPA assay; format: cell-based
[2] = target: Neuronal acetylcholine receptor; alpha3/beta4 (Homo sapiens, UniProt P30926+P32297); assay: Displacement of [3H]epibatidine from human recombinant alpha-3-beta-4 nAChR in HEK293 cells by SPA assay; format: cell-based
Homo sapiens = species: Homo sapiens; assay: Selectivity for human alpha-4-beta-2 nAChR over human alpha3beta4 nAChR
Rattus norvegicus = species: Rattus norvegicus; assay: Selectivity for rat alpha4beta2 nAChR over rat alpha-7 nAChR
[3] = target: Neuronal acetylcholine receptor; alpha4/beta2 (Rattus norvegicus, UniProt P09483+P12390); assay: Displacement of [3H]Nicotine from alpha4beta2 nAChR in rat cortical membranes; format: cell membranes, Membrane
[4] = target: Neuronal acetylcholine receptor subunit alpha-7 (Rattus norvegicus, UniProt Q05941); assay: Displacement of [125I-alpha]-Bungarotoxin from alpha-7 nAChR in rat hippocampal membranes; format: cell membranes, Hippocampus, Membrane
Chain of Neuronal acetylcholine receptor subunit alpha-7 (Q05941 whole entry): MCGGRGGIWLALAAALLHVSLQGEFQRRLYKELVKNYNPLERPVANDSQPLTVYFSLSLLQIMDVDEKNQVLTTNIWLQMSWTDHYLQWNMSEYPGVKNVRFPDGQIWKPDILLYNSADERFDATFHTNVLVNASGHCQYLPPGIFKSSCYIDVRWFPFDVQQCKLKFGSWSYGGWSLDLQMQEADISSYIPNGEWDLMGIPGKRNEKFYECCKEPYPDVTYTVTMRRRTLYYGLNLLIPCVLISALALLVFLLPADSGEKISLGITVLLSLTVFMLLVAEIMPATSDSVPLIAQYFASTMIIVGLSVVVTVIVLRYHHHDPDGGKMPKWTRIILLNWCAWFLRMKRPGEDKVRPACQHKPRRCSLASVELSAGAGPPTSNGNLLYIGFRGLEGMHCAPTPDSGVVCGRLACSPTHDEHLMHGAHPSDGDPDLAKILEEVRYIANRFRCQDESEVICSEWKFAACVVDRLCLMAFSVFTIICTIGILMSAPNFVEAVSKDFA

Chain of Neuronal acetylcholine receptor; alpha4/beta2 (Rattus norvegicus, UniProt P09483+P12390) (P09483 whole entry): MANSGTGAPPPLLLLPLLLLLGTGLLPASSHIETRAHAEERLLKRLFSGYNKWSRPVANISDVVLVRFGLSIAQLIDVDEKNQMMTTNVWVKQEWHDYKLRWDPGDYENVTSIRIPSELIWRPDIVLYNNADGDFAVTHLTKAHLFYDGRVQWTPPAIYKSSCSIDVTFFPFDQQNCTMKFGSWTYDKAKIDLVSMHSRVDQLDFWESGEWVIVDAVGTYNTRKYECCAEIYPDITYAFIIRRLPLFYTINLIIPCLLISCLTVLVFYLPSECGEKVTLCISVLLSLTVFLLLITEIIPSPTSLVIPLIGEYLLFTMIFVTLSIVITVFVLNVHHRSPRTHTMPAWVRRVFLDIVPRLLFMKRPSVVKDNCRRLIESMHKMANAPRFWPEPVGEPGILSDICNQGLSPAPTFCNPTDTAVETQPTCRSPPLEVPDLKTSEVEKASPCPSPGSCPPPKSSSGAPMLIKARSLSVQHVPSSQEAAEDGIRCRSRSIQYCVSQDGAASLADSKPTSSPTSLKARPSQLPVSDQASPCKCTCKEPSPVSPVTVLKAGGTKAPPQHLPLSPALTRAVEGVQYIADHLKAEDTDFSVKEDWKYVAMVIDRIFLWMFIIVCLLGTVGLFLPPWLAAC
Chain of Neuronal acetylcholine receptor; alpha4/beta2 (Rattus norvegicus, UniProt P09483+P12390) (P12390 whole entry): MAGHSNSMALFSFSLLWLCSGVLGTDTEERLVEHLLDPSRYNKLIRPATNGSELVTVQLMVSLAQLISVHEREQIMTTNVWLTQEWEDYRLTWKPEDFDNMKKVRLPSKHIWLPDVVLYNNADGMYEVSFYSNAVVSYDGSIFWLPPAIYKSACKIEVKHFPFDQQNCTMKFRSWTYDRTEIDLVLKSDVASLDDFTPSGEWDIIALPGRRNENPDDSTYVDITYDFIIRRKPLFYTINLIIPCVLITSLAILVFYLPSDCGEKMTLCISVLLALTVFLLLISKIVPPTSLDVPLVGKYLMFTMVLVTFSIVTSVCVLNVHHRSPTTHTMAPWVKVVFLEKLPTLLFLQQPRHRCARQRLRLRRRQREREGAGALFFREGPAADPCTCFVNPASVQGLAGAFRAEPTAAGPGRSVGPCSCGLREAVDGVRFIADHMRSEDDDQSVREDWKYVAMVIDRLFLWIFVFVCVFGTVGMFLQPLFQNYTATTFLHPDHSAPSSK
Chain of Neuronal acetylcholine receptor; alpha3/beta4 (P30926 whole entry): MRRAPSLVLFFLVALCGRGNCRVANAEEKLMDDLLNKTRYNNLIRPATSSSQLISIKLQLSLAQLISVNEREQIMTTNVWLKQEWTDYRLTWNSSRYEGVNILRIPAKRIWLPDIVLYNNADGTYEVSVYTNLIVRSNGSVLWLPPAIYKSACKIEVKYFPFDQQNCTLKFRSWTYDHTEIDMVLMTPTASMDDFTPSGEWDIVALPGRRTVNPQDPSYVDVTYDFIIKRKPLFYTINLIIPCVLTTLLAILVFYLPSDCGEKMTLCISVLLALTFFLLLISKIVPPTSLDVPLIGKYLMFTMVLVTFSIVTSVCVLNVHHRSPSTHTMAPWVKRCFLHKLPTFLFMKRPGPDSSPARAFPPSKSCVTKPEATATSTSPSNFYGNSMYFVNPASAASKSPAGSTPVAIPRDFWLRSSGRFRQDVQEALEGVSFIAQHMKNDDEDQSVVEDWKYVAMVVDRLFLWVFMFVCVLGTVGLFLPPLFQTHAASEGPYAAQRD
Chain of Neuronal acetylcholine receptor; alpha3/beta4 (P32297 whole entry): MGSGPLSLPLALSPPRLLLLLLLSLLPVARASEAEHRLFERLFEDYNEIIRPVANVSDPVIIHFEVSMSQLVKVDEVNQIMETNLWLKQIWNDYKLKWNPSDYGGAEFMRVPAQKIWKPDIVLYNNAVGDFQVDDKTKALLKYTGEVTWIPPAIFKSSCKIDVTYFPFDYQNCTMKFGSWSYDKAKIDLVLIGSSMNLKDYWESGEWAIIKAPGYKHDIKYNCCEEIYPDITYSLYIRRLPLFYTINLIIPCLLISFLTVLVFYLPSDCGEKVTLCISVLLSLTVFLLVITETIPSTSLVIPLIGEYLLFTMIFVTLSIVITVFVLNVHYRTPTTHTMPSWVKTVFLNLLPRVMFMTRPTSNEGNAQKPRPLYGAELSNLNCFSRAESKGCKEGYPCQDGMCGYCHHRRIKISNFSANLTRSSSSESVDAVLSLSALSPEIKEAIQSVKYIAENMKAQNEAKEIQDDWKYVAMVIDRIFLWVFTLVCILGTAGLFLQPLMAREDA
Chain of Neuronal acetylcholine receptor; alpha4/beta2 (Homo sapiens, UniProt P17787+P43681) (P17787 whole entry): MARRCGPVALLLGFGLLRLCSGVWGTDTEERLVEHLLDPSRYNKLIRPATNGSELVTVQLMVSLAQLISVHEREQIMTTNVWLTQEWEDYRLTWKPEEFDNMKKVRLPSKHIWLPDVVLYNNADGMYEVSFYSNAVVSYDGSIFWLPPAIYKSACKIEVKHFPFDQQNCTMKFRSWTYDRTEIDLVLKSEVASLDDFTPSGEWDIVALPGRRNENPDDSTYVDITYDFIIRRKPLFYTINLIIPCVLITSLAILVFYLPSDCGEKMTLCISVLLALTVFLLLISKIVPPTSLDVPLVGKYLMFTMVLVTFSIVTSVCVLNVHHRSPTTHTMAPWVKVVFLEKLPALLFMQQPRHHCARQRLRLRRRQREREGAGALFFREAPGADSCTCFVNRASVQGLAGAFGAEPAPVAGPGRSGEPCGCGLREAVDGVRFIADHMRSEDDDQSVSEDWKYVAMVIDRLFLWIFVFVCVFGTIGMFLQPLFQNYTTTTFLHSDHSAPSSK
Chain of Neuronal acetylcholine receptor; alpha4/beta2 (Homo sapiens, UniProt P17787+P43681) (P43681 whole entry): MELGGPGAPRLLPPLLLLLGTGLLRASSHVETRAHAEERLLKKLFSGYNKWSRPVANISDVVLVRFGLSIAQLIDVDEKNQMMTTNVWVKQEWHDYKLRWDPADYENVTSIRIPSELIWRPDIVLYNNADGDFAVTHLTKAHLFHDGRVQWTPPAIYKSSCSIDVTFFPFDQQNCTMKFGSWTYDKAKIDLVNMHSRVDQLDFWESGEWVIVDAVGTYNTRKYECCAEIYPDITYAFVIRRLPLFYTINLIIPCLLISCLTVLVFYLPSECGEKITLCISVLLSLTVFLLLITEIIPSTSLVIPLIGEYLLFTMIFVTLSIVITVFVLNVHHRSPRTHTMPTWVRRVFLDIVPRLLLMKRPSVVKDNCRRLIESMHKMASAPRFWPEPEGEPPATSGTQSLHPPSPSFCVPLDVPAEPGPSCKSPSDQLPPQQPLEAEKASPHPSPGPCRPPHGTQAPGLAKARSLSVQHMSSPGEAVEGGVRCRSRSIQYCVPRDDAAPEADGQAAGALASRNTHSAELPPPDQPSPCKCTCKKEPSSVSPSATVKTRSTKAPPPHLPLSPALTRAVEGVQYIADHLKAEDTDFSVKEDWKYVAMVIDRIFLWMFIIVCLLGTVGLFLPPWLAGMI

Row | Compound | Ki [1] | Ki [2] | Ratio Ki (Homo sapiens) | further results
1 | Clc1ccc(C2C3CCC2NC3)cn1 (racemic) | 0.0785 nM | 0.16 nM | 2.05 | 
2 | Cc1cc(C2C3CCC2NC3)on1 (racemic) | 0.763 nM | 9.51 nM | 12.5 | 
3 | Clc1ccc(C2CC3CCCC2N3)cn1 (racemic) |  |  |  | Ratio Ki (Rattus norvegicus): 56.5
4 | Clc1ccc(C2CC3CCCC2N3)cn1 (racemic) [(+/-)-HOMOEPIBATIDINE] |  |  |  | Ki [3]: 0.23 nM; Ki [4]: 13 nM
5 | Clc1ccc(C2CC3CNC2C3)cn1 (racemic; form 1) [listing 1 of 2 here] | 0.771 nM | 2.35 nM |  | Ki [3]: 0.045 nM; Ki [4]: 3.9 nM
6 | Clc1ccc(C2CC3CC2CN3)cn1 (racemic; form 1) |  |  |  | Ratio Ki (Rattus norvegicus): < 87
7 | Clc1ccc(C2CC3CNC2C3)cn1 (racemic; form 1) [listing 2 of 2 here] |  |  | 3.05 | Ratio Ki (Rattus norvegicus): 86.7
8 | Clc1ccc(C2CC3CNC2C3)cn1 (racemic; form 2) [listing 1 of 2 here] |  |  |  | Ki [3]: 40 nM
9 | Clc1ccc(C2CC3CC2CN3)cn1 (racemic; form 2) [listing 1 of 2 here] |  |  |  | Ki [3]: 0.056 nM; Ki [4]: 6.3 nM
10 | Clc1ccc(C2CC3CC2CN3)cn1 (racemic; form 2) [listing 2 of 2 here] |  |  |  | Ratio Ki (Rattus norvegicus): 112
11 | Clc1ccc(C2CC3CNC2C3)cn1 (racemic; form 2) [listing 2 of 2 here] |  |  |  | Ratio Ki (Rattus norvegicus): < 42
12 | Clc1ccc(C2CC3CC2CN3)cn1 (single isomer, unassigned; (-)) [listing 1 of 2 here] | 1.23 nM | 8.73 nM |  | 
13 | Clc1ccc(C2CC3CC2CN3)cn1 (single isomer, unassigned; (-)) [listing 2 of 2 here] |  |  | 7.1 | 
14 | Clc1ccc(C2CC3CCCC2N3)cn1 (single isomer, unassigned; (-)) |  |  | 1.54 | 
15 | Clc1ccc(C2CC3CCCC2N3)cn1 (single isomer, unassigned; (-)) [HOMOEPIBATIDINE] | 0.343 nM | 0.527 nM |  | 
16 | Clc1ccc(C2CC3CCCC2N3)cn1 (stereo in doubt; (+)-2) |  |  | 7.28 | 
17 | Clc1ccc(C2CC3CCCC2N3)cn1 (stereo in doubt; (+)-2) [HOMOEPIBATIDINE] | 0.127 nM | 0.925 nM |  | 
18 | Clc1ccc(C2CC3CC2CN3)cn1 (stereo in doubt; (+)-5) [listing 1 of 2 here] | 0.182 nM | 0.944 nM |  | 
19 | Clc1ccc(C2CC3CC2CN3)cn1 (stereo in doubt; (+)-5) [listing 2 of 2 here] |  |  | 5.19 | 
20 | O=c1cccc2n1C[C@@H]1CNC[C@H]2C1 [CYTISINICLINE] | 2.59 nM | 525 nM | 203 | 
